Assay: Partition coefficient of compound (A) in solvents
Assay type: physicochemical
Details: HPLC
Description: Experimental procedure for the respective solvent: (1) A solution of 10 g of compound (A) is prepared in 90 g of the respective solvent. (2) An aliquot of 10 g of the solution obtained in step (1) is added to 90 g of water in a glass bottle, which is shaken on a mechanical shaker for 4 hours at ambient temperature (approximately 25° C.). (3) The contents of the glass bottle are permitted to phase separate for 4 days at ambient temperature (approximately 25° C.). (4) Subsamples of the resulting oil and water phases are taken and analyzed by HPLC to determine the concentrations of compound (A) in oil (Co) and water phases (Cw) respectively. The subsamples are typically centrifuged before HPLC analysis to remove traces of organic solvent from the water phase.
A Partition Coefficient, analogous to the Octanol-Water Partition Coefficient, P, is calculated as Co/Cw. The Partition Coefficient is conveniently expressed as a logarithm […].
The ratio of determined concentrations of compound (A) in the solvent phase and the water phase typically is very large. […] In other cases, traces of the organic solvent are found in the water phase, even after centrifugation, so that the apparent concentration of oil-soluble herbicide observed in the water phase is misleadingly high. […]

With `CCOC(=O)COc1ncccc1Oc1cc(-n2c(=O)cc(C(F)(F)F)n(C)c2=O)c(F)cc1Cl` [Cmp. A, ethyl [3-[2-chloro-4-fluoro-5-(1-methyl-6-trifluoromethyl-2,4-dioxo-1,2,3,4-tetrahydropyrimidin-3-yl)phenoxy]-2-pyridyloxy]acetate] the “compound (A) in the water phase” value (acetophenone as organic solvent) was “undetectable” and the “compound (A) in the water phase” value (aromatic 200ND as organic solvent) was “undetectable”.

Reference: patent US20230058279A1, “HERBICIDE COMPOSITIONS WITH AUXIN HERBICIDE MONOETHANOLAMINE SALTS WITH IMPROVED PROPERTIES” (MONSANTO TECHNOLOGY LLC, priority 2020, published 2023)
